Reference: paper PMC4503722, “Novel Phenotypic Outcomes Identified for a Public Collection of Approved Drugs from a Publicly Accessible Panel of Assays” (PLoS ONE, 2015)
Where two headings read alike, the source gives them in different places.

Assays:
HCT116 = assay: cells; type: cell-based
STC-1 cell line = type: cell-based, mouse; settings: for IC50/EC50, mSTC-1 GLP1 Secretion (assay number 13): concentration response
SNU-C1 = assay: cells; type: cell-based
RKO = assay: cells; type: cell-based
SW480 = assay: cells; type: cell-based
NCI-H716 cells = assay: cells; type: cell-based, Human; settings: for IC50/EC50, hNCI-H716 GLP1 Secretion (assay number 12): concentration response
[1] = tested on: HCT116 cells treated with a GSK3β inhibitor; assay: cells; type: cell-based
DLD-1 = assay: cells; type: cell-based
HT-29 = assay: cells; type: cell-based
Colo320 = assay: cells; type: cell-based
[2] = tested on: ECFC/ADSC co-culture cell nuclei number
HeLa cells = assay: cells; type: cell-based
[3] = tested on: endothelial tube formation in co-cultures of ECFCs and ADSCs treated with VEGF; assay: cells; type: cell-based, human

C[C@@H]1CN(CCCn2c3ccccc3c3ccccc32)C[C@H](C)N1 [NCGC00025187-02]
Basal_Viability ATP HCT116 IC50/EC50 (HCT116; assay number 25, basal): 10.5492 µM | mSTC-1 GLP1 Secretion IC50/EC50 (STC-1 cell line; assay number 13): > 40 µM | Basal_Viability ATP SNU-C1 IC50/EC50 (SNU-C1; assay number 30, basal): 6.023 µM | Basal_Viability ATP RKO IC50/EC50 (RKO; assay number 29, basal): 2.184 µM | Basal_Viability ATP SW480 IC50/EC50 (SW480; assay number 24, basal): 2.353 µM | hNCI-H716 GLP1 Secretion IC50/EC50 (NCI-H716 cells; assay number 12): 6.3711 µM | GSK3b inh pretreated_Viability ATP HCT116 IC50/EC50 ([1]; assay number 26, GSK3b inhibitor pretreated): 3.848 µM | Basal_Viability ATP DLD-1 IC50/EC50 (DLD-1; assay number 23, basal): 9.7994 µM | Basal_Viability ATP HT-29 IC50/EC50 (HT-29; assay number 28, basal): 4.021 µM | Basal_Viability ATP Colo 320 IC50/EC50 (Colo320; assay number 27, basal): 15.9001 µM

OCCN1CCN(CC/C=C2/c3ccccc3Sc3ccc(C(F)(F)F)cc32)CC1 [NCGC00162179-08]
IC50/EC50, Basal_Viability ATP HCT116 (assay number 25) (HCT116; basal): 4.577 µM | IC50/EC50, mSTC-1 GLP1 Secretion (assay number 13) (STC-1 cell line): > 40 µM | IC50/EC50, Basal_Viability ATP SNU-C1 (assay number 30) (SNU-C1; basal): 1.035 µM | IC50/EC50, Basal_Viability ATP RKO (assay number 29) (RKO; basal): 0.3178 µM | IC50/EC50, Basal_Viability ATP SW480 (assay number 24) (SW480; basal): 3.928 µM | IC50/EC50, hNCI-H716 GLP1 Secretion (assay number 12) (NCI-H716 cells): 32.1555 µM | IC50/EC50, GSK3b inh pretreated_Viability ATP HCT116 (assay number 26) ([1]; GSK3b inh pretreated): 2.894 µM | IC50/EC50, Basal_Viability ATP DLD-1 (assay number 23) (DLD-1; basal): 1.467 µM | IC50/EC50, Basal_Viability ATP HT-29 (assay number 28) (HT-29; basal): 1.808 µM | IC50/EC50, Basal_Viability ATP Colo 320 (assay number 27) (Colo320; basal): 2.3138 µM

Clc1ccccc1C(c1ccccc1)(c1ccccc1)n1ccnc1 [NCGC00015251-13]
IC50/EC50, VEGF_ADSC\ECFC Angio Hoechst NucArea (assay number 3) [2]: > 10 µM | IC50/EC50, mSTC-1 GLP1 Secretion (assay number 13) (STC-1 cell line): > 40 µM | IC50/EC50, hNCI-H716 GLP1 Secretion (assay number 12) (NCI-H716 cells): 20.2249 µM | IC50/EC50, Hela CellCycMod PI 2N (assay number 14) (HeLa cells; 2N): > 10 µM | IC50/EC50, Hela CellCycMod PI 4N (assay number 16) (HeLa cells; 4N): > 10 µM | IC50/EC50, Hela CellCycMod PI Cell Number (assay number 18) (HeLa cells; Cell Number): > 10 µM | IC50/EC50, Hela CellCycMod PI MI (assay number 17) (HeLa cells; MI): > 10 µM | IC50/EC50, Hela CellCycMod PI S Phase (assay number 15) (HeLa cells; S Phase): > 10 µM | IC50/EC50, VEGF_ADSC\ECFC Angio CD31 TubeArea (assay number 2) [3]: 3.0384 µM

O=C(Nc1ccc(Oc2ccc(Cl)cc2)c(Cl)c1)c1cc(I)cc(I)c1O [NCGC00160556-02]
VEGF_ADSC\ECFC Angio Hoechst NucArea IC50/EC50 [2]: 6.571 µM | Basal_Viability ATP HCT116 IC50/EC50 (HCT116): 0.01695 µM | mSTC-1 GLP1 Secretion IC50/EC50 (STC-1 cell line): 1.3019 µM | Basal_Viability ATP SNU-C1 IC50/EC50 (SNU-C1): 0.0143 µM | Basal_Viability ATP RKO IC50/EC50 (RKO): 0.0303 µM | Basal_Viability ATP SW480 IC50/EC50 (SW480): 0.0108 µM | hNCI-H716 GLP1 Secretion IC50/EC50 (NCI-H716 cells): > 40 µM | Basal_Viability ATP DLD-1 IC50/EC50 (DLD-1): 0.0084 µM | Basal_Viability ATP HT-29 IC50/EC50 (HT-29): 0.0095 µM | Basal_Viability ATP Colo 320 IC50/EC50 (Colo320): 0.054 µM | VEGF_ADSC\ECFC Angio CD31 TubeArea IC50/EC50 [3]: > 10 µM

CCCCCCCCCCCCCCCC[N+](C)(C)CCN(Cc1ccc(OC)cc1)c1ncccn1.[Br-] [NCGC00016507-05]
VEGF_ADSC\ECFC Angio Hoechst NucArea IC50/EC50 [2]: > 10 µM | mSTC-1 GLP1 Secretion IC50/EC50 (STC-1 cell line; assay number 13): > 40 µM | hNCI-H716 GLP1 Secretion IC50/EC50 (NCI-H716 cells; assay number 12): 17.7844 µM | Hela CellCycMod PI 2N IC50/EC50 (HeLa cells; assay number 14, 2N): > 10 µM | Hela CellCycMod PI 4N IC50/EC50 (HeLa cells; assay number 16, 4N): > 10 µM | Hela CellCycMod PI MI IC50/EC50 (HeLa cells; assay number 17, MI): > 10 µM | Hela CellCycMod PI Cell Number IC50/EC50 (HeLa cells; assay number 18, cell number): 0.3488 µM | VEGF_ADSC\ECFC Angio CD31 TubeArea IC50/EC50 [3]: 3.0741 µM

OC1(c2ccc(Cl)c(C(F)(F)F)c2)CCN(CCCC(c2ccc(F)cc2)c2ccc(F)cc2)CC1 [NCGC00165865-02]
Basal_Viability ATP HCT116 IC50/EC50 (HCT116; assay number 25, basal): 1.853 µM | mSTC-1 GLP1 Secretion IC50/EC50 (STC-1 cell line; assay number 13): > 40 µM | Basal_Viability ATP SNU-C1 IC50/EC50 (SNU-C1; assay number 30, basal): 0.1675 µM | Basal_Viability ATP RKO IC50/EC50 (RKO; assay number 29, basal): 0.9712 µM | hNCI-H716 GLP1 Secretion IC50/EC50 (NCI-H716 cells; assay number 12): 8.448 µM | Basal_Viability ATP DLD-1 IC50/EC50 (DLD-1; assay number 23, basal): 1.1393 µM | Basal_Viability ATP HT-29 IC50/EC50 (HT-29; assay number 28, basal): 0.9459 µM | Basal_Viability ATP Colo 320 IC50/EC50 (Colo320; assay number 27, basal): 0.9617 µM
